# Assay results from patent US20260022142A1, “MACROCYCLIC IMMUNOMODULATORS” (Bristol-Myers Squibb Company, priority 2022, published 2026).
# Bridge positions count the residues as written; N and C are the ends. Square brackets hold non-standard residues; d marks the D form. Peptide text beside a SMILES is read from it. * marks the point of attachment. ξ: configuration not given here. Phe(4-COOH) = N[C@@H](Cc1ccc(C(=O)O)cc1)C(=O)O; Bip = N[C@@H](Cc1ccc(-c2ccccc2)cc1)C(=O)O; Phe(3-Me) = Cc1cccc(C[C@H](N)C(=O)O)c1; Cha = N[C@@H](CC1CCCCC1)C(=O)O; Cit = NC(=O)NCCC[C@H](N)C(=O)O; NMeN = CN[C@@H](CC(N)=O)C(=O)O; Thr(3ξ) = CC(O)[C@H](N)C(=O)O; hSer = N[C@@H](CCO)C(=O)O; Carboxymethyl = O=C(O)C*; NMeA = CN[C@@H](C)C(=O)O; Orn = NCCC[C@H](N)C(=O)O; Aun = NCCCCCCCCCCC(=O)O; Dab = NCC[C@H](N)C(=O)O; AEEA = NCCOCCOCC(=O)O
# Target: T1, PD-1/PD-L1 interaction (PE-labeled human PD-L1-Ig binding to Jurkat cell line over-expressing human PD-1) (Homo sapiens, UniProt Q15116)
# T1 construct: expressed in transfected cells; host or cells: Jurkat
# Experiment: Jurkat-PD-1 Cell Binding High-Content Screening Assay (CBA)
# Type: cell-based
# Settings: Jurkat cell line over-expressing human PD-1; PE-labeled PD-L1-Ig 20 nM final; read-out: Jurkat hPD1-PDL1 IC50
# Outline: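 Human PD-L1-Ig carrying a covalent PE label on its Ig tag serves as the probe, applied at 20 nM final to compound-treated (2 h, 37° C) Jurkat-hPD-1 cells in medium with 10% fetal calf serum. After one hour, fixation and nuclear staining precede high-content image analysis.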
# T1 sequence (Q15116 25-288): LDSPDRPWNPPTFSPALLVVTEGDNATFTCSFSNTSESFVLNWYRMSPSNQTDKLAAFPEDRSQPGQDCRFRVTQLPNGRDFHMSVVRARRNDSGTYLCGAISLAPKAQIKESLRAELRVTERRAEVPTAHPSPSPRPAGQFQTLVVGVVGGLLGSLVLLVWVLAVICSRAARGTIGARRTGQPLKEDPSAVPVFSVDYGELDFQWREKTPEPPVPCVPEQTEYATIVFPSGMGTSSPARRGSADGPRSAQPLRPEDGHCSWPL
row,Compound,IC50
1,Cc1cccc(C[C@@H]2NC(=O)[C@H](CC(=O)O)NC(=O)[C@H](Cc3ccc(OCC(=O)O)cc3)NC(=O)[C@H](C(C)O)NC(=O)CSC[C@@H](C(=O)N[C@H](CC(N)=O)C(=O)NCCCCCCCCCCC(=O)O)NC(=O)[C@H](CCCN)NC(=O)[C@H](C(C)C)NC(=O)[C@H](CC3CCCCC3)NC(=O)[C@H](CCN)NC(=O)[C@@H](CC(C)C)NC(=O)[C@H](CCCN)NC(=O)[C@H](CCCNC(N)=O)NC(=O)[C@H](Cc3ccc(-c4ccccc4)cc3)NC(=O)[C@H](C(C)C)NC2=O)c1 (stereo partly drawn) [Compound 3312] ({CH2CO}-[Thr(3ξ)]Y(Carboxymethyl)D[Phe(3-Me)]V[Bip][Cit][Orn][dL][Dab][Cha]V[Orn]C[dN][Aun]-OH; thioether N-14),4.4 nM
2,Cc1cccc(C[C@@H]2NC(=O)[C@H](CC(=O)O)NC(=O)[C@H](Cc3ccc(OCC(=O)O)cc3)NC(=O)[C@H](CCCNC(=N)N)NC(=O)CSC[C@@H](C(=O)NCCCCCCCCCCC(=O)O)NC(=O)[C@H](CCCN)NC(=O)[C@H](C(C)C)NC(=O)[C@H](CC3CCCCC3)NC(=O)[C@H](CCN)NC(=O)[C@@H](CC(C)C)NC(=O)[C@H](CCCN)NC(=O)[C@H](C(C)C)NC(=O)[C@H](Cc3ccc(-c4ccccc4)cc3)NC(=O)[C@H](C(C)C)NC2=O)c1 [Compound 3316] ({CH2CO}-RY(Carboxymethyl)D[Phe(3-Me)]V[Bip]V[Orn][dL][Dab][Cha]V[Orn]C[Aun]-OH; thioether N-14),6.2 nM
3,Cc1cccc(C[C@@H]2NC(=O)[C@H](CC(=O)O)NC(=O)[C@H](Cc3ccc(OCC(=O)O)cc3)NC(=O)[C@H](CCCNC(=N)N)NC(=O)CSC[C@@H](C(=O)N(C)[C@@H](C)C(=O)NCCOCCOCC(=O)NCCCCCCCCCCC(=O)O)NC(=O)[C@H](CCCN)NC(=O)[C@H](C(C)C)NC(=O)[C@H](CC3CCCCC3)NC(=O)[C@H](CCN)NC(=O)[C@@H](CC(C)C)NC(=O)[C@H](CCN)NC(=O)[C@H](C(C)C)NC(=O)[C@H](Cc3ccc(-c4ccccc4)cc3)NC(=O)[C@H](C(C)C)NC2=O)c1 [Compound 3319] ({CH2CO}-RY(Carboxymethyl)D[Phe(3-Me)]V[Bip]V[Dab][dL][Dab][Cha]V[Orn]C[NMeA][AEEA][Aun]-OH; thioether N-14),53.4 nM
4,Cc1cccc(C[C@@H]2NC(=O)[C@H](CC(=O)O)NC(=O)[C@H](Cc3ccc(OCC(=O)O)cc3)NC(=O)[C@H](C(C)O)NC(=O)CSC[C@@H](C(=O)N(C)[C@@H](C)C(=O)NCCOCCOCC(=O)NCCCCCCCCCCC(=O)O)NC(=O)[C@H](CCCN)NC(=O)[C@H](C(C)C)NC(=O)[C@H](CC3CCCCC3)NC(=O)[C@H](CCN)NC(=O)[C@@H](CC(C)C)NC(=O)[C@H](CCN)NC(=O)[C@H](C(C)C)NC(=O)[C@H](Cc3ccc(-c4ccccc4)cc3)NC(=O)[C@H](C(C)C)NC2=O)c1 (stereo partly drawn) [Compound 3320] ({CH2CO}-[Thr(3ξ)]Y(Carboxymethyl)D[Phe(3-Me)]V[Bip]V[Dab][dL][Dab][Cha]V[Orn]C[NMeA][AEEA][Aun]-OH; thioether N-14),68.5 nM
5,Cc1cccc(C[C@@H]2NC(=O)[C@H](CC(=O)O)NC(=O)[C@H](Cc3ccc(OCC(=O)O)cc3)NC(=O)[C@H](CCCNC(=N)N)NC(=O)CSC[C@@H](C(=O)N(C)[C@@H](CC(N)=O)C(=O)NCCOCCOCC(=O)NCCCCCCCCCCC(=O)O)NC(=O)[C@H](CCCN)NC(=O)[C@H](C(C)C)NC(=O)[C@H](CC3CCCCC3)NC(=O)[C@H](CCN)NC(=O)[C@@H](CC(C)C)NC(=O)[C@H](CCN)NC(=O)[C@H](C(C)C)NC(=O)[C@H](Cc3ccc(-c4ccccc4)cc3)NC(=O)[C@H](C(C)C)NC2=O)c1 [Compound 3321] ({CH2CO}-RY(Carboxymethyl)D[Phe(3-Me)]V[Bip]V[Dab][dL][Dab][Cha]V[Orn]C[NMeN][AEEA][Aun]-OH; thioether N-14),51 nM
6,Cc1cccc(C[C@@H]2NC(=O)[C@H](CC(=O)O)NC(=O)[C@H](Cc3ccc(OCC(=O)O)cc3)NC(=O)[C@H](C(C)O)NC(=O)CSC[C@@H](C(=O)N(C)[C@@H](CC(N)=O)C(=O)NCCOCCOCC(=O)NCCCCCCCCCCC(=O)O)NC(=O)[C@H](CCCN)NC(=O)[C@H](C(C)C)NC(=O)[C@H](CC3CCCCC3)NC(=O)[C@H](CCN)NC(=O)[C@@H](CC(C)C)NC(=O)[C@H](CCN)NC(=O)[C@H](C(C)C)NC(=O)[C@H](Cc3ccc(-c4ccccc4)cc3)NC(=O)[C@H](C(C)C)NC2=O)c1 (stereo partly drawn) [Compound 3322] ({CH2CO}-[Thr(3ξ)]Y(Carboxymethyl)D[Phe(3-Me)]V[Bip]V[Dab][dL][Dab][Cha]V[Orn]C[NMeN][AEEA][Aun]-OH; thioether N-14),36.8 nM
7,Cc1cccc(C[C@@H]2NC(=O)[C@H](CC(=O)O)NC(=O)[C@H](Cc3ccc(C(=O)O)cc3)NC(=O)[C@H](Cc3ccc(OCC(=O)O)cc3)NC(=O)CSC[C@@H](C(=O)NCCOCCOCC(=O)NCCCCCCCCCCC(=O)O)NC(=O)[C@H](CCO)NC(=O)[C@H](C(C)C)NC(=O)[C@H](CC3CCCCC3)NC(=O)[C@H](CCN)NC(=O)[C@@H](CC(C)C)NC(=O)[C@H](CCCN)NC(=O)[C@H](C(C)C)NC(=O)[C@H](Cc3ccc(-c4ccccc4)cc3)NC(=O)[C@H](C(C)C)NC2=O)c1 [Compound 3327] ({CH2CO}-Y(Carboxymethyl)[Phe(4-COOH)]D[Phe(3-Me)]V[Bip]V[Orn][dL][Dab][Cha]V[hSer]C[AEEA][Aun]-OH; thioether N-14),31.4 nM
8,CC(=O)NCCCC[C@@H]1NC(=O)[C@H](Cc2ccc(-c3ccccc3)cc2)NC(=O)[C@H](C(C)C)NC(=O)[C@H](Cc2c[nH]c3ccccc23)NC(=O)[C@H](CC(=O)O)NC(=O)[C@H](Cc2ccc(OCC(=O)O)cc2)NC(=O)[C@H](CCCNC(=N)N)NC(=O)CSC[C@@H](C(=O)NCCOCCOCC(=O)NCCCCCCCCCCC(=O)O)NC(=O)[C@H](C(C)O)NC(=O)[C@H](C(C)C)NC(=O)[C@H](CC2CCCCC2)NC(=O)[C@H](CCN)NC(=O)[C@@H](CC(C)C)NC(=O)[C@H](CCCN)NC1=O (stereo partly drawn) [Compound 3335] ({CH2CO}-RY(Carboxymethyl)DWV[Bip]K(Ac)[Orn][dL][Dab][Cha]V[Thr(3ξ)]C[AEEA][Aun]-OH; thioether N-14),8.2 nM
9,CC(C)C[C@H]1NC(=O)[C@H](CCCN)NC(=O)[C@H](C(C)C)NC(=O)[C@H](Cc2ccc(-c3ccccc3)cc2)NC(=O)[C@H](CCO)NC(=O)[C@H](Cc2c[nH]c3ccccc23)NC(=O)[C@H](CC(=O)O)NC(=O)[C@H](Cc2ccc(OCC(=O)O)cc2)NC(=O)[C@H](CCCNC(=N)N)NC(=O)CSC[C@@H](C(=O)N[C@@H](CCCN)C(=O)NCCCCCCCCCCC(=O)O)NC(=O)[C@H](C(C)O)NC(=O)[C@H](C(C)C)NC(=O)[C@H](CC2CCCCC2)NC(=O)[C@H](CCN)NC1=O (stereo partly drawn) [Compound 3338] ({CH2CO}-RY(Carboxymethyl)DW[hSer][Bip]V[Orn][dL][Dab][Cha]V[Thr(3ξ)]C[Orn][Aun]-OH; thioether N-14),27.4 nM
10,CC(C)C[C@H]1NC(=O)[C@H](CCCN)NC(=O)[C@H](C(C)C)NC(=O)[C@H](Cc2ccc(-c3ccccc3)cc2)NC(=O)[C@H](C(C)C)NC(=O)[C@H](Cc2c[nH]c3ccccc23)NC(=O)[C@H](CC(=O)O)NC(=O)[C@H](Cc2ccc(OCC(=O)O)cc2)NC(=O)[C@H](CCCNC(=N)N)NC(=O)CSC[C@@H](C(=O)N[C@@H](CCCN)C(=O)NCCCCCCCCCCC(=O)O)NC(=O)[C@H](CCO)NC(=O)[C@H](C(C)C)NC(=O)[C@H](CC2CCCCC2)NC(=O)[C@H](CCN)NC1=O [Compound 3339] ({CH2CO}-RY(Carboxymethyl)DWV[Bip]V[Orn][dL][Dab][Cha]V[hSer]C[Orn][Aun]-OH; thioether N-14),8.7 nM
